Data as given in ChEMBL document CHEMBL1649080, “Identification of a potent Janus kinase 3 inhibitor with high selectivity within the Janus kinase family” (J Med Chem, 2011).

How the values were obtained:
[1] = molecular target: T1, Tyrosine-protein kinase JAK3 (Homo sapiens, UniProt P52333); type: cell-based
T1 sequence (P52333 whole entry): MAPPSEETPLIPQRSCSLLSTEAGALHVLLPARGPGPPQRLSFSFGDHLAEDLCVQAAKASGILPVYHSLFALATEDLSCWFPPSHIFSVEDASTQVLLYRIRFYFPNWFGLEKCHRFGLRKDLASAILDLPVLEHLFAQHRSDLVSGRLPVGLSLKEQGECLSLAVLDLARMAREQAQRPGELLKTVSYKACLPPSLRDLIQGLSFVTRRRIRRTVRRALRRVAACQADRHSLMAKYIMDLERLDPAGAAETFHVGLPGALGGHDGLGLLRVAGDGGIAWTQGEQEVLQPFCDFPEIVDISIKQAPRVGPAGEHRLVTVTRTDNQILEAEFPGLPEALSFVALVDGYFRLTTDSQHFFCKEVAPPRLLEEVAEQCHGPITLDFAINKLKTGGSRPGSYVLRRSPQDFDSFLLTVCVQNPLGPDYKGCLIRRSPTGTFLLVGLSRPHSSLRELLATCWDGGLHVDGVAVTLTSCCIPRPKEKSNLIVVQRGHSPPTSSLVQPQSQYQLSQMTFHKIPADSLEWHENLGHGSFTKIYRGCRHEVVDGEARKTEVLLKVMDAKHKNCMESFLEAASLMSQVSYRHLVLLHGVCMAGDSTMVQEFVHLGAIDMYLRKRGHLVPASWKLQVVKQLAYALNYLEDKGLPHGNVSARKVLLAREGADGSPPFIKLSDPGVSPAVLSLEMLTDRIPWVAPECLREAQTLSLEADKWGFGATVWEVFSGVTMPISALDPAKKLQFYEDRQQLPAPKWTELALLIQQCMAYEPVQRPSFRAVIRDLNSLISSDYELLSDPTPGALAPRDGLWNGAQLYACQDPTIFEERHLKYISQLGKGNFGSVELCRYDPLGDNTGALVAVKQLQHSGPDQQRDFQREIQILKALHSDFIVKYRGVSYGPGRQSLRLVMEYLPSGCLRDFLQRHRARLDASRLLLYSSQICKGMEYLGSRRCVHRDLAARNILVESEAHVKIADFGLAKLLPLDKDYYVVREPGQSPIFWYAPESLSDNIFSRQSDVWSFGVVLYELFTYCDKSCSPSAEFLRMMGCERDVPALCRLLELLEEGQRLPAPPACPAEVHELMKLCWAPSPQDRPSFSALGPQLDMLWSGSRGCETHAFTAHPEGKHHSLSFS

[2] = molecular target: Tyrosine-protein kinase JAK1 (Homo sapiens, UniProt P23458)
Chain of Tyrosine-protein kinase JAK1 (P23458 whole entry): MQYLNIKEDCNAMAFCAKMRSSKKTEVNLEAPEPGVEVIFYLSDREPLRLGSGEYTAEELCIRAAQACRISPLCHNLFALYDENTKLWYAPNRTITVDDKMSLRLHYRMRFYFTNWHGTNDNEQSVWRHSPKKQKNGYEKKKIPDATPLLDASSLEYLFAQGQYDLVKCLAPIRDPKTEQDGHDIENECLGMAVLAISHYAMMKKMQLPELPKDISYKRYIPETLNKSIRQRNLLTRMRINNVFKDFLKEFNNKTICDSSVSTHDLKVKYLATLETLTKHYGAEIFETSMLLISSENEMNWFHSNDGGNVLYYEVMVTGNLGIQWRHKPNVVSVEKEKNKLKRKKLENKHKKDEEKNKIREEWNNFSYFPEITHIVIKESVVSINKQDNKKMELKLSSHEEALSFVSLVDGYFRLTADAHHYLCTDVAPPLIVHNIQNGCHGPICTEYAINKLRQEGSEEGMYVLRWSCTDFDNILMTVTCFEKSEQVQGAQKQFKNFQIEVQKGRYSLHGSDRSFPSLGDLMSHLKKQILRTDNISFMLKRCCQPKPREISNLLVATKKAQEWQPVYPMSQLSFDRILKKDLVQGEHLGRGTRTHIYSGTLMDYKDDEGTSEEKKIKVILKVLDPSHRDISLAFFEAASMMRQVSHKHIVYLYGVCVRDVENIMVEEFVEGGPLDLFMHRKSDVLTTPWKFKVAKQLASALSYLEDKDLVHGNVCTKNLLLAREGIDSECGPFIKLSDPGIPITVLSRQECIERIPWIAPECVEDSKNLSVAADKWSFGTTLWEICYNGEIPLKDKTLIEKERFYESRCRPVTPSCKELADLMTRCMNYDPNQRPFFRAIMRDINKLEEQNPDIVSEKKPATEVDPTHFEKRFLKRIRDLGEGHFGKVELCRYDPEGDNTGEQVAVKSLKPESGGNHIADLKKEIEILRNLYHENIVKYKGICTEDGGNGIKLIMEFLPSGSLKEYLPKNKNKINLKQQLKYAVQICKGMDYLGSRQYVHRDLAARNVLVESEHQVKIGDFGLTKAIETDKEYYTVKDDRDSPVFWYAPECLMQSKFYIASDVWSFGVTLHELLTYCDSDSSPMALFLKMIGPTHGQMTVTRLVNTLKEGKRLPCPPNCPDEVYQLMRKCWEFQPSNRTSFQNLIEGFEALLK

[3] = molecular target: Tyrosine-protein kinase JAK2 (Homo sapiens, UniProt O60674)
Chain of Tyrosine-protein kinase JAK2 (O60674 whole entry): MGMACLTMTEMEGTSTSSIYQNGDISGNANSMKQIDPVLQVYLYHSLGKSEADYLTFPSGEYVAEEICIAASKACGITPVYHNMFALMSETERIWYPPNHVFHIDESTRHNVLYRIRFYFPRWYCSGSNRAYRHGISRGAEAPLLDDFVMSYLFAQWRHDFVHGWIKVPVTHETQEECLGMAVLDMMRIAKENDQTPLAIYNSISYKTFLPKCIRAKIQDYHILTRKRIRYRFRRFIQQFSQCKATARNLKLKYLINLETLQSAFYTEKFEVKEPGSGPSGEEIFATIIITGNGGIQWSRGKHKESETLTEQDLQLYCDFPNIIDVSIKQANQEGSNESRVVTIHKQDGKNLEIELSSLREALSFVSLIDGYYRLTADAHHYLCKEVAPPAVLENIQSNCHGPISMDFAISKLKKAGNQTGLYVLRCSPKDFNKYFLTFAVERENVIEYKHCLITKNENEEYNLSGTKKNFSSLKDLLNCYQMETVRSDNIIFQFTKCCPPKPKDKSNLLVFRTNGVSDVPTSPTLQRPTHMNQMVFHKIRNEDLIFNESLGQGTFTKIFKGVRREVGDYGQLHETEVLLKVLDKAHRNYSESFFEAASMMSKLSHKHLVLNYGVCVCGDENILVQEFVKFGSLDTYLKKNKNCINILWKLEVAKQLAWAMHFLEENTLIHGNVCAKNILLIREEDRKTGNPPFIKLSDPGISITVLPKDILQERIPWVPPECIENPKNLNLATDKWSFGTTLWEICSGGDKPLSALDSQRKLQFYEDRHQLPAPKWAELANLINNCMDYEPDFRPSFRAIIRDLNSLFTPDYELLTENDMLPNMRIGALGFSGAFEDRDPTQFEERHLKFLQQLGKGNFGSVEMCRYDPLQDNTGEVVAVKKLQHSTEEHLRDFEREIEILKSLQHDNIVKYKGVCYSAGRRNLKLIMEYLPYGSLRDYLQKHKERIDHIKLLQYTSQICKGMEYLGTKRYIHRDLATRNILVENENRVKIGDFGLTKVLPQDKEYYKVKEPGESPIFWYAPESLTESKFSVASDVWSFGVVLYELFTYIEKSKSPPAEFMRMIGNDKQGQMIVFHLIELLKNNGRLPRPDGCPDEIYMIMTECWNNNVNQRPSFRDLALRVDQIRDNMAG

[4] = molecular target: Non-receptor tyrosine-protein kinase TYK2 (Homo sapiens, UniProt P29597)
Chain of Non-receptor tyrosine-protein kinase TYK2 (P29597 whole entry): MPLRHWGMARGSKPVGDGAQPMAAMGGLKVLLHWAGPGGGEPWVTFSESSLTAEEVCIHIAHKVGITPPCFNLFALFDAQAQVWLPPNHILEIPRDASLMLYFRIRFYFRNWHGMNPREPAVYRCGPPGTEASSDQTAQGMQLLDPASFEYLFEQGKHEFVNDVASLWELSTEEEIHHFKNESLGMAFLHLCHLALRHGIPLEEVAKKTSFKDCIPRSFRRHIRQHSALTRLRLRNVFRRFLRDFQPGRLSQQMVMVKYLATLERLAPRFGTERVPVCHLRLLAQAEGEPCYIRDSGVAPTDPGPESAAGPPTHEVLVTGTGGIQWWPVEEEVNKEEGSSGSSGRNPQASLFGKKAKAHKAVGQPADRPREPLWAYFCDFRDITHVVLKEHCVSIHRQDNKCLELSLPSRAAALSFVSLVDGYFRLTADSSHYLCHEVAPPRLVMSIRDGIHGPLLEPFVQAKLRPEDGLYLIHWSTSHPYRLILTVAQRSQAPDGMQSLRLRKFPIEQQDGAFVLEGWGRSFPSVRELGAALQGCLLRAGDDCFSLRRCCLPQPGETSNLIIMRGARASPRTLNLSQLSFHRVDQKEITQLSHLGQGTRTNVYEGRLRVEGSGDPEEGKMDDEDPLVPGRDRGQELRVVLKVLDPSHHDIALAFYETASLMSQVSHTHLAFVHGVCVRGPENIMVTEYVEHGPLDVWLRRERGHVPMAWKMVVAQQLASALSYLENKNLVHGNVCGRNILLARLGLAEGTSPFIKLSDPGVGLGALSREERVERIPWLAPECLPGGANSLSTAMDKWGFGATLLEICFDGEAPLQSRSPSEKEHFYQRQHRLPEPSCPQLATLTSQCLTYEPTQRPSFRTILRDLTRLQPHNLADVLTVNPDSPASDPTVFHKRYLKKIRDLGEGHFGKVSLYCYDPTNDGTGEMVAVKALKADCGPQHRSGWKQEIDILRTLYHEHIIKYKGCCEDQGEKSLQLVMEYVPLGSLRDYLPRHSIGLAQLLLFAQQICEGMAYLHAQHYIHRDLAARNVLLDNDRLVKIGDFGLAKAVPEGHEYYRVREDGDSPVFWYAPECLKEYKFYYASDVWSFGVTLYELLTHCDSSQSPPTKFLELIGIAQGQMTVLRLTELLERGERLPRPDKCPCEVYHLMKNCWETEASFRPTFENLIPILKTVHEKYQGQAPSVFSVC

[5] = molecular target: Protein kinase C alpha type (Homo sapiens, UniProt P17252); assay: Inhibition of PKCalpha
[6] = molecular target: Protein kinase C theta type (Homo sapiens, UniProt Q04759); assay: Inhibition of PKCtheta
[7] = molecular target: Glycogen synthase kinase-3 beta (Homo sapiens, UniProt P49841); assay: Inhibition of GSK3-beta
Chain of Glycogen synthase kinase-3 beta (P49841 whole entry): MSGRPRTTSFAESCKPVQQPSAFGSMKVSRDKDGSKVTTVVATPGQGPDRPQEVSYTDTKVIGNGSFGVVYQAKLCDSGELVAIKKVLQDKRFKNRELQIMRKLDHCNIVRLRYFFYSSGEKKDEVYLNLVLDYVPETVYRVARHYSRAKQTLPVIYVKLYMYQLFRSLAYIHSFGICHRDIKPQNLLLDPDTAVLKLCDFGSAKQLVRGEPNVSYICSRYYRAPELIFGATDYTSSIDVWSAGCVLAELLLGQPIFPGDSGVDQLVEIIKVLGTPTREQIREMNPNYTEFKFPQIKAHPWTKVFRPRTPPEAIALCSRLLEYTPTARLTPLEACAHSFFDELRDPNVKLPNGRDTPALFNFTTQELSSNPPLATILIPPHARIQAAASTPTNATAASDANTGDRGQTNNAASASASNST

[8] = molecular target: T2, Tyrosine-protein kinase JAK3 (Mus musculus, UniProt Q62137)
T2 sequence (Q62137 whole entry): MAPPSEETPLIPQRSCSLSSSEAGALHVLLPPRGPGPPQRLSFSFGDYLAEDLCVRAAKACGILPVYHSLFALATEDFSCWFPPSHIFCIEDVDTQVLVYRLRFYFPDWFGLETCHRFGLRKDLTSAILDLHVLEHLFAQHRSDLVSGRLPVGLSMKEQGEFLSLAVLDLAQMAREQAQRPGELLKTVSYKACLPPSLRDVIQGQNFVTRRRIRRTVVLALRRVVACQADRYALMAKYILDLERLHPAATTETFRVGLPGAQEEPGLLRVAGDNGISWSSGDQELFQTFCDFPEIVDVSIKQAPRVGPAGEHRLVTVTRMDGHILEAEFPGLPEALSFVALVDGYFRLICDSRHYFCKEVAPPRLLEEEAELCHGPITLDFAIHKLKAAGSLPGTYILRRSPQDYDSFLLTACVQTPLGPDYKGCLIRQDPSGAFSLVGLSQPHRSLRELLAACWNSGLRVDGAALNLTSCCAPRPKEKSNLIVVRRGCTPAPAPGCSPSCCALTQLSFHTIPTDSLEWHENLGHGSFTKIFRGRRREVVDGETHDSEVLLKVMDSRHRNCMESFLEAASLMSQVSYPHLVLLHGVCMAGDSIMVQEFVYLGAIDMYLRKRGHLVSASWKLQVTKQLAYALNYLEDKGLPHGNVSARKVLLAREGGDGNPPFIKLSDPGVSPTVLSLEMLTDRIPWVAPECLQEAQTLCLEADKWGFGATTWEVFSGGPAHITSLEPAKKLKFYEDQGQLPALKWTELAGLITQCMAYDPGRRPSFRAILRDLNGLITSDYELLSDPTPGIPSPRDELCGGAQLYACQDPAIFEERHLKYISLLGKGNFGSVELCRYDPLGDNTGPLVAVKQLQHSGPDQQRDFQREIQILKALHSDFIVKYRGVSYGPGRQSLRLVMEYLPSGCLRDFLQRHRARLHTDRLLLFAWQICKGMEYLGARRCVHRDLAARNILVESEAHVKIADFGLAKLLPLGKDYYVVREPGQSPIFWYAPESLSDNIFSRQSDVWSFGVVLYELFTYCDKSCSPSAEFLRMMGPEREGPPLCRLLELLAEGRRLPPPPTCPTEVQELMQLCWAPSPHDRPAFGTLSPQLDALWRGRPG
Description: Inhibition of Jak3-mediated IL2-induced Stat5 phosphorylation in mouse CTLL cells by cell-based assay

Jurkat [9] = conditions: human, 0.33 µM
Description: Drug uptake in human Jurkat cells assessed as whole cell extract measured per 50000 cells at 0.33 uM in growth medium by LC-MS/MS analysis

Jurkat [10] = conditions: human, 1 µM
Description: Drug uptake in human Jurkat cells assessed as whole cell extract measured per 50000 cells at 1 uM in growth medium by LC-MS/MS analysis

Jurkat [11] = conditions: human, 3.3 µM
Description: Drug uptake in human Jurkat cells assessed as whole cell extract measured per 50000 cells at 3.3 uM in growth medium by LC-MS/MS analysis

Jurkat [12] = conditions: human, 10 µM
Description: Drug uptake in human Jurkat cells assessed as whole cell extract measured per 50000 cells at 10 uM in growth medium by LC-MS/MS analysis

CTLL [13] = conditions: mouse, 0.33 µM
Description: Drug uptake in mouse CTLL cells assessed as whole cell extract measured per 50000 cells at 0.33 uM in growth medium by LC-MS/MS analysis

CTLL [14] = conditions: mouse, 1 µM
Description: Drug uptake in mouse CTLL cells assessed as whole cell extract measured per 50000 cells at 1 uM in growth medium by LC-MS/MS analysis

CTLL [15] = conditions: mouse, 3.3 µM
Description: Drug uptake in mouse CTLL cells assessed as whole cell extract measured per 50000 cells at 3.3 uM in growth medium by LC-MS/MS analysis

CTLL [16] = conditions: mouse, 10 µM
Description: Drug uptake in mouse CTLL cells assessed as whole cell extract measured per 50000 cells at 10 uM in growth medium by LC-MS/MS analysis

Jurkat [17] = assay: cells; conditions: Homo sapiens
Description: Inhibition of antiTCR/antiCD28-stimulated IL2 production in human Jurkat cells by measuring bioluminescence

in vitro = conditions: human, Caco-2

IC50 [1]	IC50 [2]	IC50 [3]	IC50 [4]	SMILES	also measured
36 nM	754 nM	1440 nM	5040 nM	O=CN1CCN(c2ccc(C(F)(F)F)c(C3=C(c4c[nH]c5ccccc45)C(=O)NC3=O)c2)CC1	
> 10000 nM	> 10000 nM	> 10000 nM	> 10000 nM	O=C1NC(=O)C(c2c[nH]c3ccccc23)=C1c1cc(F)ccc1C(F)(F)F	
460 nM	6500 nM	> 10000 nM	> 10000 nM	O=C1NC(=O)C(c2c[nH]c3ccccc23)=C1c1cc(N2CCOCC2)ccc1C(F)(F)F	
	253 nM	330 nM	4330 nM	O=C1CCN(c2ncc(C(F)(F)F)c(C3=C(c4c[nH]c5ccccc45)C(=O)NC3=O)n2)CC1	
133 nM	737 nM	4700 nM	> 10000 nM	O=C1NC(=O)C(c2c[nH]c3ccccc23)=C1c1cc(N2CCNCC2)ccc1C(F)(F)F	
				CC(C)(O)C(=O)N1CCN(c2ccc(C(F)(F)F)c(C3=C(c4c[nH]c5ccccc45)C(=O)NC3=O)c2)CC1	IC50 [5]: 13 nM; IC50 [6]: 68 nM; IC50 [7]: 3 nM; IC50 [8]: 1290 nM; Drug uptake (Jurkat [9]): 2.4 pmol; Drug uptake (Jurkat [10]): 7.88 pmol; Drug uptake (Jurkat [11]): 23.48 pmol; Drug uptake (Jurkat [12]): 55.58 pmol; Drug uptake (CTLL [13]): 3.12 pmol; Drug uptake (CTLL [14]): 10.97 pmol; Drug uptake (CTLL [15]): 31.27 pmol; Drug uptake (CTLL [16]): 64.33 pmol; IC50 (Jurkat [17]): 689 nM; Papp A→B (in vitro): 3 ×10⁻⁶ cm/s
423 nM	4700 nM	9150 nM	> 10000 nM	CN(C)c1ccc(C(F)(F)F)c(C2=C(c3c[nH]c4ccccc34)C(=O)NC2=O)c1	
